Laboratory results published in US9146240B2, “Systems and methods for determining a C-peptide receptor, C-peptide receptor, and methods of using same” (Saint Louis University, priority 2012, dated 2015).

Target: T1, GPR146 (Homo sapiens, UniProt Q96CH1)
T1 construct: endogenous in cells; host or cells: KATOIII (human stomach carcinoma)
Assay: C-peptide-induced cFos expression in KATOIII cells after siRNA transfection
Assay type: cell-based
Details: 1 nmole C-peptide, 1 hour
Experimental: Once the hierarchical candidates were identified and ranked, KATOIII cells were then transfected with siRNA (Integrated DNA technologies) (111) directed against either GPR107 (control), GPR146 (most likely candidate not yet tested) or eGFP (green fluorescent protein—control) using Lipofectamine […] (Invitrogen). Five hours later, the media was changed to serum free control media (ATCC) and the serum was starved overnight. Twenty-four (24) hours after transfection with siRNA, cells were treated with 1 nmole C-peptide (Phoenix Pharmaceuticals) for 1 hour, then lysed and RNA were isolated using an RNeasy Kit (Qiagen). RNA was used as a template from the production of cDNA, and changes in cFos expression were determined using RT-PCR (BioRad 2x iQ SyberGreen Master Mix, using a BioRad CFX real time system). […] As this produced the desired negative response (113), GPR146 was the target GPCR (115). The receptiveness of GPR146 to C-peptide has since been verified by additional conventional tests

T1 sequence (Q96CH1 whole entry): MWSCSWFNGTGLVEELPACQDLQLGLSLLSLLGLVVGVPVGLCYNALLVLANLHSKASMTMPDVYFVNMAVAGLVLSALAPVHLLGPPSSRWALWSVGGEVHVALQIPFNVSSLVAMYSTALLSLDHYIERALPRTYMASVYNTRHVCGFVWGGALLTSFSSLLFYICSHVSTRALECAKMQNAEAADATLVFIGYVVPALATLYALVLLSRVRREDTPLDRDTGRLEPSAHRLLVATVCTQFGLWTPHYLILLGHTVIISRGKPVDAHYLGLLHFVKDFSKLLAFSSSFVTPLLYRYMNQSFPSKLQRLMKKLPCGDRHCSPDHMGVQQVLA

changes in cFos expression (KATOIII cells transfected with GPR107 siRNA (control)): increase in cFos | changes in cFos expression (KATOIII cells transfected with GPR146 siRNA (GPR146 compromised), FIG. 6): failed to respond | changes in cFos expression (KATOIII cells transfected with Vehicle (Lipofectamine 2000 alone, no siRNA)): increase in cFos | changes in cFos expression (KATOIII cells transfected with sGFPO siRNA (control)): increase in cFos
Substance: C-peptide
